Test results reported in US20240172756A1, “ORGANOANTIMONY(V) C[…] AND METHODS OF PRODUCTION AND USE THEREOF” (priority 2021, published 2024).

Legend:
Format in all cases: cell-based
Cryptococcus neoformans [1] = assay: Antifungal disk diffusion assay, C. neoformans; conditions: solid compound on paper disk
Description: (§1) To determine the antifungal properties of the two groups of Sb(V) cyanoximaes, Cryptococcus neoformans and Candida albicans, both of which are deadly human pathogens, were tested.
(§2) First, solid state powder compounds were deposited on paper disks and tested against two fungi: Cryptococcus neoformans and Candia albicans. Each experiment was conducted in triplicate with each compound at each concentration of deposited solid compound. The control was a blank paper (100% cotton disk).
(§3) Disk diffusion assays: No inhibition of Cryptococcus neoformans or Candida albicans for the following organoantimony(V) cyanoximate compounds at any concentration (S, ×2, ×4): H(ACO), H(ECO), H(MCO).

Candida albicans [2] = assay: Antifungal disk diffusion assay, C. albicans; conditions: solid compound on paper disk
Description: as §1, §2, §3

[3] = system: bacterial and fungal pathogens; assay: Antimicrobial activity overall (disk diffusion and MIC tests, strain not specified); conditions: for antimicrobial effect in MIC assays: organism not given
Description: (§4) To determine the antimicrobial potential of the two generations (G1—based on SbPh4-core, and G2—based on SbMe3-core) of newly synthesized Sb(V) cyanoximates, several representative compounds were first selected and their antimicrobial properties tested by using disk diffusion assays, The minimal inhibitory concentrations (MIC) of selected compounds were also determined in liquid cultures. Three bacterial and two fungal pathogens were used as target microorganisms. Bacterial pathogens included Gram-negative Pseudomonas aeruginosa and Gram-positive Staphylococcus aureus, representing the ESKAPE group of human pathogens known for their high virulence and antibiotic resistance.
(§5) Two different types of antimicrobial studies were performed: 1) paper disk studies during growth on solid media; and 2) MIC determination during growth in liquid media. […] Antifungal disk assays concluded that Sb(Ph)4 (ECO) was effective against Cryptococcus neoformans and Candida albicans. […] For MIC assays, Sb(Ph)4 (MCO), the Sb(V) cyanoximate, was tested, along with the free cyanoximes H(MCO), H(ECO), and Na[H(ACO)2].

Pseudomonas aeruginosa = assay: MIC in liquid culture, P. aeruginosa; conditions: for MIC, P. aeruginosa: Table 1; for antimicrobial effect: strain PAO1, paper disk and MIC studies
Description: as §4
(§6) MIC of the 3rd generation compounds, as well as complete MIC measurements for the 2nd generation Sb(V) compounds, are determined. A dilution assay in a 96-well-plate format, the gold standard for measuring MICS recommended by the Clinical Laboratory Standards Institute (CLSI), is utilized. Prior to plate inoculation, bacterial cultures of P. aeruginosa PAO1, S. aureus NRS70, E. foecium CC17, and E. coli S17 are grown in Mueller Hinton Broth (MHB) to middle log phase as determined by the individual growth curves and diluted to obtain absorbance at 600 nm of 0.1. These normalized cultures are diluted 1:100 using MHB and inoculated into the fresh medium with serially diluted Sb(V) compounds in 96-well plates. The plates are incubated for 24 h at 37° C. For fungal pathogens, cultures of Cryptococcus neoformans strain H99 and Candida albicans strain SC5314 are grown to stationary phase in YPD medium for 18 h at 30° C. Following incubation, fungal cells are centrifuged, washed three times with PBS, and then counted with trypan blue exclusion. Each compound is screened using a microdilution assay with 0.5×10^3 fungal cells in RPMI-MOPS medium at 35° C. for 48 h. Following incubations for bacterial or fungal pathogens, the OD600 is measured using a Biotek Synergy HT microtiter plate reader ([…].). The MIC is defined as the lowest concentration that inhibits growth. An aliquot from the clear wells from the MIC assay is plated on agar to determine minimum bactericidal concentration (MBC) or minimum fungicidal concentration (MFC). Each experiment is based on at least three biological replicates and repeated for consistency. The MIC and MBC for each compound is compared to those obtained for clinically applied antibiotics/antifungals. For bacterial pathogens, the corresponding antibiotics, such as tobramycin (P. aeruginosa), trimethoprim (S. aureus), gentamicin (E. coli) and ampicillin (E. foecium), are used. For fungal pathogens, the data is compared to the antifungal drugs Amphotericin B and Caspofungin for C. neoformans and C. albicans, respectively, by using the CLSI method.
as §5
(§7) MIC assays: The MIC assay protocol utilized for determination of the effects of various organoantimony(V) cyanoximate compounds in various bacteria is shown in FIG. 16. Each solubilized in DMSO at 5 mg/ml, starting concentration is 100 μg/ml. Error bars represent standard error of the mean (if none, the values were identical in each experiment). Untested compounds have no bar. Bars reaching 100 μg/ml were not considered to have antifungal activity.

Escherichia coli = assay: MIC in liquid culture, E. coli; conditions: for MIC, E. coli: Table 1; for antimicrobial effect: strain S17, paper disk and MIC studies
Description: as §4, §6, §5, §7

Staphylococcus aureus = assay: MIC in liquid culture, S. aureus; conditions: for antimicrobial effect: Methicillin-resistant strain NRS70, paper disk and MIC studies; for MIC, S. aureus: Table 1
Description: as §4, §6, §5, §7

Cryptococcus neoformans [4] = assay: MIC assay, C. neoformans; conditions: for MIC, C. neoformans: Table 1
Description: as §1, §6
(§8) Second, the compounds were dissolved in DMSO to […], and their minimal inhibitory concentration (MIC) was determined against C. neoformans and C. albicans. Starting concentration used was 100 μg/ml, and then diluted 1:2.
as §7

Candida albicans [5] = assay: MIC assay, C. albicans; conditions: for MIC, C. albicans: Table 1
Description: as §1, §6, §8, §7

[6] = system: Staphylococcus aureus MRSA; assay: Broth dilution assay, S. aureus MRSA; conditions: multi-drug resistant strain, FIG. 20
Source text: As shown in FIGS. 20-21, compounds containing Sb display higher bactericidal activity against Gram positive Staphylococcus aureus (FIG. 20) than Gram negative E. coli (FIG. 21). […] In addition, 25-40% reduction of growth was also observed for Sb(Ph4)Br, Sb(Ph4)ECO, Sb(Ph4)ACO, and Sb(Ph4)TCO against Gram negative E. coli (FIG. 21).

[7] = in DMSO, starting concentration 100 μg/ml, active if MIC below 100 μg/ml

SMILES | antifungal activity / zone of inhibition in disk assay (Cryptococcus neoformans [1]) | antifungal activity / zone of inhibition in disk assay (Candida albicans [2]) | MIC, P. aeruginosa (Pseudomonas aeruginosa) [µg/mL] | MIC, E. coli (Escherichia coli) [µg/mL] | MIC, S. aureus (Staphylococcus aureus) [µg/mL] | MIC, C. neoformans (Cryptococcus neoformans [4]) [µg/mL] | MIC, C. albicans (Candida albicans [5]) [µg/mL] | also measured
N#C/C(=N\O)C(N)=O [H(ACO), reference compound] | No inhibition | No inhibition |  |  |  |  |  | antimicrobial activity [3]: most antimicrobially active
N#CC(=N[O][Sb]([c]1ccccc1)([c]1ccccc1)([c]1ccccc1)[c]1ccccc1)C(N)=S [SbPh4TCO] | followed in antifungal activity against both strains | followed in antifungal activity against both strains | >200 | >200 | 100 | 25 | 100 | antimicrobial effect (Pseudomonas aeruginosa): essentially no antimicrobial activity; antimicrobial effect (Escherichia coli): essentially no antimicrobial activity; antimicrobial effect (Staphylococcus aureus): significant effects; bactericidal activity [6]: significant bactericidal activity
CCOC(=O)C(C#N)=N[O][Sb]([c]1ccccc1)([c]1ccccc1)([c]1ccccc1)[c]1ccccc1 [SbPh4ECO] | effective | effective | 150 | >200 | 150 | 10.9 | 31.2 | antimicrobial effect (Pseudomonas aeruginosa): significant antimicrobial effect; antimicrobial effect (Escherichia coli): significant antimicrobial effect; antimicrobial effect (Staphylococcus aureus): significant antimicrobial effect; bactericidal activity [6]: significant bactericidal activity
CN(C)C(=S)C(C#N)=N[O][Sb]([CH3])([CH3])([CH3])[O]N=C(C#N)C(=S)N(C)C [SbMe3(TDCO)2] |  |  | >200 | >200 |  |  |  | 
N#CC(=NO)C(=O)N1CCOCC1 [H(MCO), reference compound] | No inhibition | No inhibition |  |  |  |  |  | antimicrobial activity [3]: most antimicrobially active; antimicrobial effect in MIC assays [3]: no antimicrobial effect
[CH3][Sb]([CH3])([CH3])([O]N=C(C#N)c1ccc(Cl)cc1Cl)[O]N=C(C#N)c1ccc(Cl)cc1Cl [SbMe3(2,4-ClPhCO)2] |  |  | >200 | >200 |  | >100 | >100 | 
CCOC(=O)C(C#N)=N[O][Sb]([CH3])([CH3])([CH3])[O]N=C(C#N)C(=O)OCC [SbMe3(ECO)2] |  |  | >200 | >200 | >200 |  |  | 
CN(C)C(=S)C(C#N)=N[O][Sb]([c]1ccccc1)([c]1ccccc1)([c]1ccccc1)[c]1ccccc1 [SbPh4TDCO] | effective | only effective at inhibition of Cryptococcus neoformans | >200 | >200 | 100 | 33.3 | 100 | antimicrobial effect (Pseudomonas aeruginosa): essentially no antimicrobial activity; antimicrobial effect (Escherichia coli): essentially no antimicrobial activity; antimicrobial effect (Staphylococcus aureus): significant effects
[CH3][Sb]([CH3])([CH3])([O]N=C(C#N)C(=O)N1CCOCC1)[O]N=C(C#N)C(=O)N1CCOCC1 [SbMe3(MCO)2] |  |  | 50 | >200 | >200 |  |  | antimicrobial activity [3]: pronounced antimicrobial activity
CCOC(=O)/C(C#N)=N/O [H(ECO), reference compound] | No inhibition | No inhibition |  |  |  |  |  | antimicrobial effect in MIC assays [3]: no antimicrobial effect
[CH3][Sb]([CH3])([CH3])([Br])[Br] [SbMe3Br2, triemethylantimony(V) dibromide, reference compound] |  |  | 50 | 150 | 100 | >100 | >100 | 
[Br][Sb]([c]1ccccc1)([c]1ccccc1)([c]1ccccc1)[c]1ccccc1 [SbPh4Br, tetraphenylantimony(V) bromide, reference compound] |  |  |  |  |  |  |  | bactericidal activity [6]: significant bactericidal activity
[CH3][Sb]([CH3])([CH3])([O]N=C(C#N)C(N)=S)[O]N=C(C#N)C(N)=S [SbMe3(TCO)2] |  |  | >200 | >200 |  |  |  | 
N#CC(=NO)C(N)=O.N#CC(=N[O-])C(N)=O.[Na+] [Na[H(ACO)2]] |  |  |  |  |  |  |  | antimicrobial effect in MIC assays [3]: no antimicrobial effect
[CH3][Sb]([CH3])([CH3])([O]N=C(C#N)c1c(Cl)cccc1Cl)[O]N=C(C#N)c1c(Cl)cccc1Cl [SbMe3(2,6-ClPhCO)2] |  |  | >200 | 50 |  | >100 | >100 | antimicrobial activity [3]: pronounced antimicrobial activity
N#CC(=N[O][Sb]([c]1ccccc1)([c]1ccccc1)([c]1ccccc1)[c]1ccccc1)C(=O)N1CCOCC1 [SbPh4MCO] |  |  | 200 | >200 | 100 | 19.8 | 32.1 | concentration with fungicidal activity (killed C. neoformans) (Cryptococcus neoformans [4]; Example 6): 100 µg/mL; MIC with C. neoformans (Cryptococcus neoformans [4]; Example 6, three independent experiments): 22.5 µg/mL; antifungal activity in MIC assay (Cryptococcus neoformans [4]; [7]): exhibited antifungal activity; antifungal activity in MIC assay (Candida albicans [5]; [7]): exhibited antifungal activity
[CH3][Sb]([CH3])([CH3])([O]N=C(C#N)c1ccccc1Cl)[O]N=C(C#N)c1ccccc1Cl [SbMe3(2-ClPhCO)2] |  |  | >200 | >200 | >200 | >100 | >100 | 
